Measured values: ChEMBL document CHEMBL3991601, “The target landscape of clinical kinase drugs” (Science, 2017)
Active and inactive are the calls of the source.

Columns and labels:
[1] = molecular target: Mitogen-activated protein kinase 3 (Homo sapiens, UniProt P27361)
Activin receptor type-1 = molecular target: T1, Activin receptor type-1 (Homo sapiens, UniProt Q04771)
T1 sequence (Q04771 whole entry): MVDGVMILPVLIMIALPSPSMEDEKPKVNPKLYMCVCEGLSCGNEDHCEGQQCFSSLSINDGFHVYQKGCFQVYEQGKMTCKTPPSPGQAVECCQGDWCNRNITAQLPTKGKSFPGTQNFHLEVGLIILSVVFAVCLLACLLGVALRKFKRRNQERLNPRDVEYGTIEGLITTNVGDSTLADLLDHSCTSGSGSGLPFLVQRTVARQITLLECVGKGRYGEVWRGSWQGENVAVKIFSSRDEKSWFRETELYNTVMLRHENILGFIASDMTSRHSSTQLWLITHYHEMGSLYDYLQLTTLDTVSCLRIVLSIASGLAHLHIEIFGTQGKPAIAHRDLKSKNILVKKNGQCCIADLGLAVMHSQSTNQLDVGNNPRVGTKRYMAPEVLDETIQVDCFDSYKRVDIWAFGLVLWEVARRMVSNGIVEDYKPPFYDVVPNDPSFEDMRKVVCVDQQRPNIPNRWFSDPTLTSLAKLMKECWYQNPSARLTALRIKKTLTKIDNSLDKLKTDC

[2] = molecular target: Protein-tyrosine kinase 2-beta (Homo sapiens, UniProt Q14289)
[3] = molecular target: T2, Mitogen-activated protein kinase kinase kinase 2 (Homo sapiens, UniProt Q9Y2U5)
T2 sequence (Q9Y2U5 whole entry): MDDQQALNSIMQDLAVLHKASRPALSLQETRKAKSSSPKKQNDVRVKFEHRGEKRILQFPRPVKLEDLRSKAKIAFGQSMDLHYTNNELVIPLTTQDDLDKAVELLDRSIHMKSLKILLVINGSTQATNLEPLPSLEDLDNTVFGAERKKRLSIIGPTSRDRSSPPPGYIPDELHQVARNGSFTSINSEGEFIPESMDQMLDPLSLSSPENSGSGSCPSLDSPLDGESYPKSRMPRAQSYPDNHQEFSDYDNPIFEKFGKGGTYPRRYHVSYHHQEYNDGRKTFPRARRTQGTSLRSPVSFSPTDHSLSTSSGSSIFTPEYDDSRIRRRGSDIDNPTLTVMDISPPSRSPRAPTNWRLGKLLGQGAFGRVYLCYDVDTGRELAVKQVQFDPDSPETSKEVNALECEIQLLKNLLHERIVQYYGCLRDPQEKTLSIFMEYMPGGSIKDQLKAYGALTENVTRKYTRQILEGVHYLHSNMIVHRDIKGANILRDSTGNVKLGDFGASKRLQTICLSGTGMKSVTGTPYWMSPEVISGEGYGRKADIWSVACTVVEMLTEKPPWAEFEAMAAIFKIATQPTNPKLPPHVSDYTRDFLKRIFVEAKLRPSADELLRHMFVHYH

[4] = molecular target: T3, Serine/threonine-protein kinase STK11 (Homo sapiens, UniProt Q15831)
T3 sequence (Q15831 whole entry): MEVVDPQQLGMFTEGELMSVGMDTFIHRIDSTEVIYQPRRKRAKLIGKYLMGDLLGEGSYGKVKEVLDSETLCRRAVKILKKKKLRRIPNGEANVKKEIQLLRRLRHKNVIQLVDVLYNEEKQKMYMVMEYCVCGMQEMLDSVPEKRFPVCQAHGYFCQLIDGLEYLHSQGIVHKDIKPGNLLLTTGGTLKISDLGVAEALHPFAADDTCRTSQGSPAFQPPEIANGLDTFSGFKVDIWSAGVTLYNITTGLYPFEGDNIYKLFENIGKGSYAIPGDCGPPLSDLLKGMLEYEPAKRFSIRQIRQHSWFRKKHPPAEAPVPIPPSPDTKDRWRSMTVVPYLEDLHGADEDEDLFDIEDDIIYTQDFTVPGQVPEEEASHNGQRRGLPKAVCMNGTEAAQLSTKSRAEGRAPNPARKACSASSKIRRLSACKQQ

[5] = molecular target: Serine/threonine-protein kinase/endoribonuclease IRE2 (Homo sapiens, UniProt Q76MJ5)
[6] = molecular target: T4, Thyroid hormone receptor-associated protein 3 (Homo sapiens, UniProt Q9Y2W1)
T4 sequence (Q9Y2W1 whole entry): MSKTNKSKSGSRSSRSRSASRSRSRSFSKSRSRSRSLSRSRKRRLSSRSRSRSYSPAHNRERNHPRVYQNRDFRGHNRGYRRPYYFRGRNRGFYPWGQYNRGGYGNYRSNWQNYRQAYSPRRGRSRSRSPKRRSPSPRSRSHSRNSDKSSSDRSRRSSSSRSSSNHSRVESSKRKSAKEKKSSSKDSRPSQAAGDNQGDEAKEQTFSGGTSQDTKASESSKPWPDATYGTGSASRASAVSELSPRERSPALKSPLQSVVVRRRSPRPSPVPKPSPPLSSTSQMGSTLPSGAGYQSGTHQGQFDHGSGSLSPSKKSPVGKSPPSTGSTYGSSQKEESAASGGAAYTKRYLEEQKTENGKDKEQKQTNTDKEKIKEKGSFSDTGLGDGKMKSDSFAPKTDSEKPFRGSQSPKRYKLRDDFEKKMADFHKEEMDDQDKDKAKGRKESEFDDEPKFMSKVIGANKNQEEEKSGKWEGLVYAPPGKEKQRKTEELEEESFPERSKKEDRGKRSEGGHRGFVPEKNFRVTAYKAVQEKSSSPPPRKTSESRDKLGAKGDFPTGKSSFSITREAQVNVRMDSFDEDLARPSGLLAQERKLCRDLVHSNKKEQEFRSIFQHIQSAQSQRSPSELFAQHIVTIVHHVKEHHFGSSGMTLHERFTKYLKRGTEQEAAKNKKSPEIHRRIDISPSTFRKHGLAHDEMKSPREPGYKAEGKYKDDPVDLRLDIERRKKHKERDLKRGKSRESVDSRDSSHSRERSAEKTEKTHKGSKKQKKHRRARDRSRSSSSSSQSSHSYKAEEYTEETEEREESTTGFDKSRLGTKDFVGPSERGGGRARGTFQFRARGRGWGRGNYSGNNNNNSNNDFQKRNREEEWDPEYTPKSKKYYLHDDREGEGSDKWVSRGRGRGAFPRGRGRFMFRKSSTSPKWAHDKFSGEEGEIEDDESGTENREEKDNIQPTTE

[7] = molecular target: cAMP-dependent protein kinase type II-alpha regulatory subunit (Homo sapiens, UniProt P13861)
[8] = molecular target: Interleukin-1 receptor-associated kinase 1 (Homo sapiens, UniProt P51617)
Also: in the data inactive means no Kd found up to 30 µM.

Sequence of Protein-tyrosine kinase 2-beta (Q14289 whole entry): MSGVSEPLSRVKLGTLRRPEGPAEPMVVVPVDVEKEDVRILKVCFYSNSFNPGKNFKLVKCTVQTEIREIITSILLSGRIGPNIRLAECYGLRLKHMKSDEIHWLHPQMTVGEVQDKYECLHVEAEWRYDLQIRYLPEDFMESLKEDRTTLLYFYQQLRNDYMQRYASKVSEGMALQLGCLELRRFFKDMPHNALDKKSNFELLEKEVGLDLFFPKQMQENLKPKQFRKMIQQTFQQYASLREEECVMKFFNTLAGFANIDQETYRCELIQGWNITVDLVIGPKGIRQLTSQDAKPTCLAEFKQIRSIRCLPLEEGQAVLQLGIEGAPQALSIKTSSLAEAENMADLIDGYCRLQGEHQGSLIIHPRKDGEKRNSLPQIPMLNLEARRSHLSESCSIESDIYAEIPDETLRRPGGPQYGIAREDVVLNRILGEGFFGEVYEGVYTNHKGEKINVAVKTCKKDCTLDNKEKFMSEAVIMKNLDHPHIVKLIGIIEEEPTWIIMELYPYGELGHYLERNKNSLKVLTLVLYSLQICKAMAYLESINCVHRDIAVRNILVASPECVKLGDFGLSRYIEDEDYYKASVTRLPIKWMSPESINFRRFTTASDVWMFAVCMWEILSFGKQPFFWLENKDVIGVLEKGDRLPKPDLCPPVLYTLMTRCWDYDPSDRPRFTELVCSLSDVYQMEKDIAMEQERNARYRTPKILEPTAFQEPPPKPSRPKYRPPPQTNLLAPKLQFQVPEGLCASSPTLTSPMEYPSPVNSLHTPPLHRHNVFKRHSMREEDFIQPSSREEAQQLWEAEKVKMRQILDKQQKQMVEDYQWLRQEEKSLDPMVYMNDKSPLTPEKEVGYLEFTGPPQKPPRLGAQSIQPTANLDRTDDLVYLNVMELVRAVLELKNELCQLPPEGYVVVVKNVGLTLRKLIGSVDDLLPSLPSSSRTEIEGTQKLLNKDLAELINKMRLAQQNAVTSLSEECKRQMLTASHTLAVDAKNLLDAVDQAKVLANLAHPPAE
Sequence of Interleukin-1 receptor-associated kinase 1 (P51617 whole entry): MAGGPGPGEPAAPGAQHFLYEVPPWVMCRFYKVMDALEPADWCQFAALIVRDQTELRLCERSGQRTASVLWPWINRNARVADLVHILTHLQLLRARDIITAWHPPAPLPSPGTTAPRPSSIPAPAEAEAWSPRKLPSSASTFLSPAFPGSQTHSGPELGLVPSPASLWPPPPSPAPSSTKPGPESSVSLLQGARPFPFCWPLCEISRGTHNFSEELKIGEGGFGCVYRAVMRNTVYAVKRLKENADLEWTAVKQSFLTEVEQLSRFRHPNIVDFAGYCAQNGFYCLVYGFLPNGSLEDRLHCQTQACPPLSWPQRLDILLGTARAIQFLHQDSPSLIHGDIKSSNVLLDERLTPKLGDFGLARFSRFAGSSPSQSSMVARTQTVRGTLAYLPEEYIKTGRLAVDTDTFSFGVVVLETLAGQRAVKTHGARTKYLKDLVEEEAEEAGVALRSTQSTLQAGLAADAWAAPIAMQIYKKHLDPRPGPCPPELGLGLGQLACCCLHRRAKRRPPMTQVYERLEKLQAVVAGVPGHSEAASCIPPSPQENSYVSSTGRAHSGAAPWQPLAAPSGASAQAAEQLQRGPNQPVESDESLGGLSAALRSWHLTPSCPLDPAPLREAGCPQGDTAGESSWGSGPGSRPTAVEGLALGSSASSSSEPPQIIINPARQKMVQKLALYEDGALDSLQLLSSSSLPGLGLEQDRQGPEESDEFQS
Sequence of cAMP-dependent protein kinase type II-alpha regulatory subunit (P13861 whole entry): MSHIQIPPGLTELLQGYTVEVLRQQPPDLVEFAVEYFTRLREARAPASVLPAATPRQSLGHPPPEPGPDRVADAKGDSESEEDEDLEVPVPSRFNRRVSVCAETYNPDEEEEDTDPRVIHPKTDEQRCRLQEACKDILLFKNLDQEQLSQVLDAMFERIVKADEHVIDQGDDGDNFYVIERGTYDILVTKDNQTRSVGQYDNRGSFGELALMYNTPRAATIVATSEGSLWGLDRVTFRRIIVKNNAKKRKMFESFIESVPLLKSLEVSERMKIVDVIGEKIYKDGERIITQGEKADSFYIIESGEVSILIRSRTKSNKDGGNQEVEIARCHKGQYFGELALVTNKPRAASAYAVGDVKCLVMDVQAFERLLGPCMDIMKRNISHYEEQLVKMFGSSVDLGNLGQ
Sequence of Serine/threonine-protein kinase/endoribonuclease IRE2 (Q76MJ5 whole entry): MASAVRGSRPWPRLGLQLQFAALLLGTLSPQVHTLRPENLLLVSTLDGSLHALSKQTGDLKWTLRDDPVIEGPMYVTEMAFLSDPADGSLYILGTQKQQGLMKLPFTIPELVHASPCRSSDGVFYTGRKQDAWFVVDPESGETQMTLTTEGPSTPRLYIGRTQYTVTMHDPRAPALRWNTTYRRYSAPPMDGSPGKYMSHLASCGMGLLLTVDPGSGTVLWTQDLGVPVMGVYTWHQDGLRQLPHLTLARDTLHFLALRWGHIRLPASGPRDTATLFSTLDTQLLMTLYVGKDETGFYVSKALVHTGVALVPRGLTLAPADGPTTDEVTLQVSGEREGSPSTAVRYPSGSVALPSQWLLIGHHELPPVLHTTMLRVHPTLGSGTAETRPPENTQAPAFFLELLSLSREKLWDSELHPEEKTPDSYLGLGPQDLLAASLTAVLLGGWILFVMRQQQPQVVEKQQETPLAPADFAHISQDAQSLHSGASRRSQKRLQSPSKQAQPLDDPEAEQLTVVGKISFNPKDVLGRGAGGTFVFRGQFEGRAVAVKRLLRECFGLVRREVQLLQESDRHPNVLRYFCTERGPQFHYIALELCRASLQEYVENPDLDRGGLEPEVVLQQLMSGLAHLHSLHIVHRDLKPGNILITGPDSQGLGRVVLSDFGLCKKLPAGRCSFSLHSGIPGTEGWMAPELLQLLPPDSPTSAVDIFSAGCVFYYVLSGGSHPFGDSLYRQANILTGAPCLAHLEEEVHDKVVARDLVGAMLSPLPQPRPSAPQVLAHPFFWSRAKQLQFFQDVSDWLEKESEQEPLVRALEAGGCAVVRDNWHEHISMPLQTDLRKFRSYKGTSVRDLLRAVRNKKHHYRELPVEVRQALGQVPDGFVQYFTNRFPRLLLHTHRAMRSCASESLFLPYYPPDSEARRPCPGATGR
Sequence of Mitogen-activated protein kinase 3 (P27361 whole entry): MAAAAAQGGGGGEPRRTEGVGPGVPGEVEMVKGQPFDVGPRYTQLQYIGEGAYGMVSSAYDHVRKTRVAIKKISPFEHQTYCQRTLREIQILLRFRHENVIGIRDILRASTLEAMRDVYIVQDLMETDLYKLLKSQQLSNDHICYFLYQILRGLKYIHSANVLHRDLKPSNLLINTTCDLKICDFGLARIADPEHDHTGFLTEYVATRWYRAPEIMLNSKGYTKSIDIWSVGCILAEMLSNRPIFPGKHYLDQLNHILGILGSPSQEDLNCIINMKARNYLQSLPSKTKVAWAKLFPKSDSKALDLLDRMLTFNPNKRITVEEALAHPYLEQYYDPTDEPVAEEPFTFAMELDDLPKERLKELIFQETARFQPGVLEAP

Kd [1]	Kd (Activin receptor type-1)	Kd [2]	Kd [3]	Kd [4]	Kd [5]	Kd [6]	Kd [7]	Kd [8]	Structure (SMILES)
> 30 µM (inactive)	> 30 µM (inactive)	> 30 µM (inactive)	> 30 µM (inactive)	> 30 µM (inactive)	> 30 µM (inactive)	> 30 µM (inactive)	> 30 µM (inactive)	> 30 µM (inactive)	COc1ccc(S(=O)(=O)N(C(C)=O)c2ccccc2/C=C/c2cc[n+]([O-])cc2)cc1 [HMN-214]
> 30 µM (inactive)	> 30 µM (inactive)	> 30 µM (inactive)	> 30 µM (inactive)	> 30 µM (inactive)	> 30 µM (inactive)	> 30 µM (inactive)	> 30 µM (inactive)	> 30 µM (inactive)	NC1(c2ccc(-c3nc4ccn5c(=O)[nH]nc5c4cc3-c3ccccc3)cc2)CCC1 [MK-2206]
> 30 µM (inactive)	> 30 µM (inactive)	> 30 µM (inactive)	> 30 µM (inactive)	> 30 µM (inactive)	> 30 µM (inactive)	> 30 µM (inactive)	> 30 µM (inactive)	> 30 µM (inactive)	Cn1cc(-c2cnc3ccc4ccc(CS(=O)(=O)NCc5ccccn5)cc4c(=O)c3c2)cn1 [MK-8033]
> 30 µM (inactive)	> 30 µM (inactive)	> 30 µM (inactive)	> 30 µM (inactive)	> 30 µM (inactive)	> 30 µM (inactive)	> 30 µM (inactive)	> 30 µM (inactive)	> 30 µM (inactive)	FC(F)(F)c1ccc(/C=C/c2nc(COc3ccc(CCCCn4ccnn4)cc3)co2)cc1 [MUBRITINIB]
3.87 µM (active)	> 30 µM (inactive)	1.4 µM (active)	> 30 µM (inactive)	0.434 µM (active)	> 30 µM (inactive)	> 30 µM (inactive)	> 30 µM (inactive)	> 30 µM (inactive)	Cc1nc(Nc2n[nH]c3c2CN(C(=O)N[C@H](CN(C)C)c2ccccc2)C3(C)C)c2sccc2n1 [PF-03758309]
> 30 µM (inactive)	> 30 µM (inactive)	> 30 µM (inactive)	> 30 µM (inactive)	> 30 µM (inactive)	> 30 µM (inactive)	> 30 µM (inactive)	> 30 µM (inactive)	> 30 µM (inactive)	Cc1cnc(NC(=O)Nc2cc(Br)c(C)cc2OC[C@@H]2CNCCO2)cn1 [RABUSERTIB]
> 30 µM (inactive)	> 30 µM (inactive)	> 30 µM (inactive)	> 30 µM (inactive)	> 30 µM (inactive)	> 30 µM (inactive)	> 30 µM (inactive)	> 30 µM (inactive)	> 30 µM (inactive)	CO[C@H]1C[C@@H]2CC[C@@H](C)[C@@](O)(O2)C(=O)C(=O)N2CCCC[C@H]2C(=O)O[C@H]([C@H](C)C[C@@H]2CC[C@@H](OP(C)(C)=O)[C@H](OC)C2)CC(=O)[C@H](C)/C=C(\C)[C@@H](O)[C@@H](OC)C(=O)[C@H](C)C[C@H](C)/C=C/C=C/C=C/1C [RIDAFOROLIMUS]
> 30 µM (inactive)	> 30 µM (inactive)	> 30 µM (inactive)	> 30 µM (inactive)	> 30 µM (inactive)	> 30 µM (inactive)	> 30 µM (inactive)	> 30 µM (inactive)	> 30 µM (inactive)	N#CC1(c2ccc(NC(=O)c3cccnc3NCc3ccncc3)cc2)CCCC1 [RIVOCERANIB]

Structure (SMILES)	Kd [1]	Kd (Activin receptor type-1)	Kd [2]	Kd [3]	Kd [4]	Kd [5]	Kd [6]	Kd [7]	Kd [8]
O=C(Nc1cc(C(F)(F)F)cc(C(F)(F)F)c1)c1cc(Cl)ccc1O [IMD-0354]	> 30 µM (inactive)	> 30 µM (inactive)	> 30 µM (inactive)	> 30 µM (inactive)	> 30 µM (inactive)	> 30 µM (inactive)	> 30 µM (inactive)	> 30 µM (inactive)	> 30 µM (inactive)
CCOc1cc2ncc(C#N)c(Nc3ccc(F)c(Cl)c3)c2cc1NC(=O)/C=C/CN(C)C [PELITINIB]	> 30 µM (inactive)	> 30 µM (inactive)	> 30 µM (inactive)	> 30 µM (inactive)	> 30 µM (inactive)	> 30 µM (inactive)	> 30 µM (inactive)	> 30 µM (inactive)	> 30 µM (inactive)
